Laboratory results: US10219516B2, “Molecules having pesticidal utility, and intermediates, compositions, and processes, related thereto” (priority 2015, dated 2019)
Where two headings read alike, the source gives them in different places.

Columns and labels:
Format in all cases: in vivo
[1] = test system: Beet Armyworm (Spodoptera exigua, LAPHEG); test: Bioassay on Beet Armyworm (BAW), 128-well diet tray assay
How it was run: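 Diet tray, 8 wells/compound; 50 μg/cm^2 applied to diet surface (90:10 acetone-water), dried. 1–5 L2 larvae/well; 25° C., 14:10 L:D, 5–7 d. Read-out: % mortality, mean of 8 wells.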

[2] = test system: Yellow Fever Mosquito (Aedes aegypti, AEDSAE); test: Bioassay on Yellow Fever Mosquito (YFM), 96-well plate larval assay; settings: for YFM rating: Yellow Fever Mosquito, 96-well plate larval assay; for YFM (Biological Results, rating): Species YFM (Yellow Fever Mosquito)
How it was run: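 Aedes aegypti larvae (about 1 day old) in liver-powder water were added to plates dispensed from DMSO master plates (4000 ppm stock) diluted with 90:10 water/acetone; six replicate plates per master. Lidded plates were held at room temperature for 3 days, then each well was scored for mortality.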

[3] = test system: Cabbage Looper (Trichoplusia ni, TRIPNI); test: Bioassay on Cabbage Looper (CL), 128-well diet tray assay; settings: Trichoplusia ni
How it was run: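 Second-instar larvae, one to five per well, placed on artificial diet treated with 50 μg/cm^2 test molecule in 90:10 acetone-water, dried before infestation. Held 5–7 days at 25° C, 14:10 light-dark; percent mortality averaged over eight wells.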

[4] = Beet Armyworm, 128-well diet tray assay, read-out: BAW rating
[5] = Cabbage Looper, 128-well diet tray assay, read-out: CL rating
[6] = Species BAW (Beet Armyworm), read-out: BAW (Biological Results, rating)
[7] = Species CL (Cabbage Looper), read-out: CL (Biological Results, rating)

Question: For `O=C(Nc1ccc(F)cc1F)c1cc(NC(=O)[C@H]2[C@H](c3cccc(C(F)F)c3)C2(Cl)Cl)ccc1Cl` (relative stereo) [F564, 2-Chloro-5-(trans-2,2-dichloro-3-(3-(difluoromethyl)phenyl)cyclopropane-1-carboxamido)-N-(2,4-difluorophenyl)benzamide], which pest or weed control at 50 µg/cm2 [1, 4] is on record?
Answer: 50 to 100%

Question: What about the YFM rating [2] of the same compound?
Answer: A (80-100)

Question: What about the pest or weed control at 50 µg/cm2 [3, 5] of the same compound?
Answer: 50 to 100%

Question: With `O=C(Nc1ccc([S+]([O-])CC(F)(F)F)cc1)c1cc(NC(=O)[C@H]2[C@H](c3cc(Cl)cc(Cl)c3)C2(Cl)Cl)ccc1Cl` (relative stereo) [PF18, trans-2-Chloro-5-(2,2-dichloro-3-(3,5-dichlorophenyl)cyclopropane-1-carboxamido)-N-(4-((2,2,2-trifluoroethyl)sulfinyl)phenyl)benzamide] as the compound, how does the pest or weed control at 50 µg/cm2 [1, 4] read?
Answer: 50 to 100%

Question: What about the YFM rating [2] of the same compound?
Answer: B (More than 0-Less than 80)

Question: What about the pest or weed control at 50 µg/cm2 [3, 5] of the same compound?
Answer: 50 to 100%

Question: What does the source list for `Cc1cc(NC(=O)OC(C)(C)C)ccc1NC(=O)c1cccc(NC(=O)[C@H]2[C@H](c3cc(Cl)c(Cl)c(Cl)c3)C2(Cl)Cl)c1` (relative stereo) [F262, trans-tert-Butyl (4-(3-(2,2-dichloro-3-(3,4,5-trichlorophenyl)cyclopropane-1-carboxamido)benzamido)-3-methylphenyl)carbamate]?
Answer: pest or weed control at 50 µg/cm2 [1, 6]: 50 to 100%; YFM (Biological Results, rating) [2]: B (More than 0-Less than 80); pest or weed control at 50 µg/cm2 [3, 7]: 50 to 100%

Question: How did the pest or weed control at 50 µg/cm2 [1, 4] turn out when `COc1cc(NC(=O)c2cc(NC(=O)[C@H]3[C@H](c4cc(Cl)cc(Cl)c4)C3(Cl)Cl)ccc2Cl)ccc1F` (relative stereo) [PF52, trans-2-Chloro-5-(2,2-dichloro-3-(3,5-dichlorophenyl)cyclopropane-1-carboxamido)-N-(4-fluoro-3-methoxyphenyl)benzamide] was run?
Answer: 50 to 100%

Question: What about the YFM rating [2] of the same compound?
Answer: A (80-100)

Question: What about the pest or weed control at 50 µg/cm2 [3, 5] of the same compound?
Answer: 50 to 100%

Question: For `C=Cc1ccc(NC(=O)c2cc(NC(=O)[C@H]3[C@H](c4cc(Cl)cc(Cl)c4)C3(Cl)Cl)ccc2Cl)nc1F` (relative stereo) [F397, 2-Chloro-5-(trans-2,2-dichloro-3-(3,5-dichlorophenyl)cyclopropane-1-carboxamido)-N-(6-fluoro-5-vinylpyridin-2-yl)benzamide], which pest or weed control at 50 µg/cm2 [1, 4] is on record?
Answer: 50 to 100%

Question: And the YFM rating [2]?
Answer: A (80-100)

Question: And the pest or weed control at 50 µg/cm2 [3, 5]?
Answer: 50 to 100%

Question: `COc1cc(NC(=O)c2cc(NC(=O)[C@H]3[C@H](c4ccc(F)c(Cl)c4)C3(Cl)Cl)ccc2Cl)ccn1` (relative stereo) [F545, 2-Chloro-5-(trans-2,2-dichloro-3-(3-chloro-4-fluorophenyl)cyclopropane-1-carboxamido)-N-(2-methoxypyridin-4-yl)benzamide] was tested. Which pest or weed control at 50 µg/cm2 [1, 4] did it give?
Answer: 50 to 100%

Question: And the YFM rating [2]?
Answer: A (80-100)

Question: What about the pest or weed control at 50 µg/cm2 [3, 5] of the same compound?
Answer: 50 to 100%

Question: How did the pest or weed control at 50 µg/cm2 [1, 6] turn out when `N#Cc1cc(Cl)cc([C@H]2[C@H](C(=O)Nc3ccc(Cl)c(C(=O)Nc4ccc(F)cc4C#N)c3)C2(Cl)Cl)c1` (relative stereo) [F343, trans-2-Chloro-N-(2-cyano-4-fluorophenyl)-5-(2,2-dichloro-3-(3-chloro-5-cyanophenyl)cyclopropane-1-carboxamido)benzamide] was run?
Answer: 50 to 100%

Question: And the “YFM (Biological Results, rating)” value [2]?
Answer: A (80-100)

Question: And the pest or weed control at 50 µg/cm2 [3, 7]?
Answer: 50 to 100%

Question: With `Nc1cc(F)cc(NC(=O)c2cc(NC(=O)[C@H]3[C@H](c4cc(Cl)cc(Cl)c4)C3(Cl)Cl)ccc2Cl)c1` [F419, N-(3-Amino-5-fluorophenyl)-2-chloro-5-((1R,3R)-2,2-dichloro-3-(3,5-dichlorophenyl)cyclopropane-1-carboxamido)benzamide] as the compound, how does the pest or weed control at 50 µg/cm2 [1, 4] read?
Answer: 50 to 100%

Question: What about the YFM rating [2] of the same compound?
Answer: B (More than 0-Less than 80)

Question: And the pest or weed control at 50 µg/cm2 [3, 5]?
Answer: 50 to 100%

Question: How did the pest or weed control at 50 µg/cm2 [1, 6] turn out when `Nc1c(F)cnc(NC(=O)c2cc(NC(=O)[C@H]3[C@H](c4cc(Cl)cc(Cl)c4)C3(Cl)Cl)ccc2Cl)c1F` [F370, N-(4-Amino-3,5-difluoropyridin-2-yl)-2-chloro-5-((1R,3R)-2,2-dichloro-3-(3,5-dichlorophenyl)cyclopropane-1-carboxamido)benzamide] was run?
Answer: 50 to 100%

Question: What about the “YFM (Biological Results, rating)” value [2] of the same compound?
Answer: A (80-100)

Question: And the pest or weed control at 50 µg/cm2 [3, 7]?
Answer: 50 to 100%

Question: With `Cc1cc(F)ccc1N(C)C(=O)c1cc(NC(=O)[C@H]2[C@H](c3ccc(F)c(Cl)c3)C2(Cl)Cl)ccc1Cl` (relative stereo) [PF50, trans-2-Chloro-5-(2,2-dichloro-3-(3-chloro-4-fluorophenyl)cyclopropane-1-carboxamido)-N-(4-fluoro-2-methylphenyl)-N-methylbenzamide] as the compound, how does the pest or weed control at 50 µg/cm2 [1, 4] read?
Answer: 50 to 100%

Question: What about the YFM rating [2] of the same compound?
Answer: A (80-100)

Question: What about the pest or weed control at 50 µg/cm2 [3, 5] of the same compound?
Answer: 50 to 100%

Question: With `Cc1cc(NC(=O)OC(C)(C)C)ccc1NC(=O)c1cc(NC(=O)[C@H]2[C@H](c3ccc(F)c(Cl)c3)C2(Cl)Cl)ccc1Cl` [F290, tert-Butyl (4-(2-chloro-5-((1R,3R)-2,2-dichloro-3-(3-chloro-4-fluorophenyl)cyclopropane-1-carboxamido)benzamido)-3-methylphenyl)carbamate] as the compound, how does the pest or weed control at 50 µg/cm2 [1, 6] read?
Answer: 50 to 100%

Question: What about the “YFM (Biological Results, rating)” value [2] of the same compound?
Answer: A (80-100)

Question: And the pest or weed control at 50 µg/cm2 [3, 7]?
Answer: 50 to 100%

Question: How did the pest or weed control at 50 µg/cm2 [1, 6] turn out when `O=C(Nc1ncc(F)cc1F)c1cc(NC(=O)[C@H]2[C@H](c3cc(Cl)c(Cl)c(Cl)c3)C2(Cl)Cl)ccc1Cl` [F311, 2-Chloro-5-((1R,3R)-2,2-dichloro-3-(3,4,5-trichlorophenyl)cyclopropane-1-carboxamido)-N-(3,5-difluoropyridin-2-yl)benzamide] was run?
Answer: 50 to 100%

Question: And the “YFM (Biological Results, rating)” value [2]?
Answer: A (80-100)

Question: What about the pest or weed control at 50 µg/cm2 [3, 7] of the same compound?
Answer: 50 to 100%

Question: How did the pest or weed control at 50 µg/cm2 [1, 4] turn out when `C#Cc1ccc(NC(=O)c2cc(NC(=O)[C@H]3[C@H](c4cc(Cl)cc(Cl)c4)C3(Cl)Cl)ccc2Cl)cc1` (relative stereo) [PF15, trans-2-Chloro-5-(2,2-dichloro-3-(3,5-dichlorophenyl)cyclopropane-1-carboxamido)-N-(4-ethynylphenyl)benzamide] was run?
Answer: 50 to 100%

Question: And the YFM rating [2]?
Answer: B (More than 0-Less than 80)

Question: And the pest or weed control at 50 µg/cm2 [3, 5]?
Answer: 50 to 100%

Question: With `Nc1c(F)ccc(NC(=O)c2cc(NC(=O)[C@H]3[C@H](c4cc(Cl)cc(Cl)c4)C3(Cl)Cl)ccc2Cl)c1F` (relative stereo) [F245, trans-N-(3-Amino-2,4-difluorophenyl)-2-chloro-5-(2,2-dichloro-3-(3,5-dichlorophenyl)cyclopropane-1-carboxamido)benzamide] as the compound, how does the pest or weed control at 50 µg/cm2 [1, 6] read?
Answer: 50 to 100%

Question: What about the “YFM (Biological Results, rating)” value [2] of the same compound?
Answer: A (80-100)

Question: And the pest or weed control at 50 µg/cm2 [3, 7]?
Answer: 50 to 100%

Question: Which results are given for `O=C(Nc1cncc(NO)c1)c1cc(NC(=O)[C@H]2[C@H](c3cc(Cl)cc(Cl)c3)C2(Cl)Cl)ccc1Cl` [F525, 2-Chloro-5-((1R,3R)-2,2-dichloro-3-(3,5-dichlorophenyl)cyclopropane-1-carboxamido)-N-(5-(hydroxyamino)pyridin-3-yl)benzamide]?
Answer: pest or weed control at 50 µg/cm2 [1, 4]: 50 to 100%; YFM rating [2]: A (80-100); pest or weed control at 50 µg/cm2 [3, 5]: 50 to 100%

Question: For `O=C(Nc1ccc(F)cc1F)c1cc(NC(=O)[C@H]2[C@H](c3ccc(C(F)(F)F)c(F)c3)C2(Cl)Cl)ccc1Cl` (relative stereo) [F347, 2-Chloro-5-(trans)-(2,2-dichloro-3-(3-fluoro-4-(trifluoromethyl)phenyl)cyclopropane-1-carboxamido)-N-(2,4-difluorophenyl)benzamide], which pest or weed control at 50 µg/cm2 [1, 6] is on record?
Answer: 50 to 100%

Question: And the “YFM (Biological Results, rating)” value [2]?
Answer: A (80-100)

Question: What about the pest or weed control at 50 µg/cm2 [3, 7] of the same compound?
Answer: 50 to 100%

Question: How did the pest or weed control at 50 µg/cm2 [1, 6] turn out when `Nc1c(F)cnc(NC(=O)c2cc(NC(=O)[C@H]3[C@H](c4cc(Cl)c(Cl)c(Cl)c4)C3(Cl)Cl)ccc2Cl)c1F` [F372, N-(4-Amino-3,5-difluoropyridin-2-yl)-2-chloro-5-((1R,3R)-2,2-dichloro-3-(3,4,5-trichlorophenyl)cyclopropane-1-carboxamido)benzamide] was run?
Answer: 50 to 100%

Question: What about the “YFM (Biological Results, rating)” value [2] of the same compound?
Answer: A (80-100)

Question: What about the pest or weed control at 50 µg/cm2 [3, 7] of the same compound?
Answer: 50 to 100%

Question: Which results are given for `O=C(Nc1ccc(F)cc1)c1cc(NC(=O)[C@@H]2[C@@H](c3cc(Cl)cc(Cl)c3)C2(Cl)Cl)ccc1Cl` [F166, 2-Chloro-5-((1S,3S)-2,2-dichloro-3-(3,5-dichlorophenyl)cyclopropane-1-carboxamido)-N-(4-fluorophenyl)benzamide]?
Answer: pest or weed control at 50 µg/cm2 [1, 6]: 50 to 100%; YFM (Biological Results, rating) [2]: B (More than 0-Less than 80); pest or weed control at 50 µg/cm2 [3, 7]: 50 to 100%

Question: What does the source list for `CC(=O)Nc1ccc(NC(=O)c2cc(NC(=O)[C@H]3[C@H](c4cc(Cl)cc(Cl)c4)C3(Cl)Cl)ccc2Cl)c(C)c1` (relative stereo) [PF158, trans-N-(4-Acetamido-2-methylphenyl)-2-chloro-5-(2,2-dichloro-3-(3,5-dichlorophenyl)cyclopropane-1-carboxamido)benzamide]?
Answer: pest or weed control at 50 µg/cm2 [1, 4]: 50 to 100%; YFM rating [2]: A (80-100); pest or weed control at 50 µg/cm2 [3, 5]: 50 to 100%

Question: What does the source list for `CC(=O)c1cc(F)ccc1NC(=O)c1cc(NC(=O)[C@H]2[C@H](c3cc(Cl)cc(Cl)c3)C2(Cl)Cl)ccc1Cl` (relative stereo) [PF77, trans-N-(2-acetyl-4-fluorophenyl)-2-chloro-5-(2,2-dichloro-3-(3,5-dichlorophenyl)cyclopropane-1-carboxamido)benzamide]?
Answer: pest or weed control at 50 µg/cm2 [1, 4]: 50 to 100%; YFM rating [2]: A (80-100); pest or weed control at 50 µg/cm2 [3, 5]: 50 to 100%
